Reference: paper PMC6967409 (Frontiers in Chemistry, 2020)
Several values for one entry are separate records, joined by “and”; a condition that tells them apart may be missing. Equal values may be shown once. Read-outs that look alike come from different tables or passages of the source.

What was measured:
[1] = test system: P. falciparum NF54 late stage gametocytes (>90% stage IV and V); assay: Gametocytocidal luciferase reporter assay, late stage, 72 h; format: cell-based, Plasmodium falciparum; settings: Plasmodium falciparum, NF54, 72 h, read-out: Late Stage (LG, Luc 72 h) IC50, >90% stage IV and V gametocytes, ±SEM
Method: (§1) P. falciparum parasites (NF54, K1, and W2) were cultured in vitro in human erythrocytes (A^+ or O^+) under 90% N2, 5% CO2, and 5% O2 atmospheric conditions with supplemented RPMI 1640 media (Sigma Aldrich) containing Albumax II, as previously described (Verlinden et al., [2011]). This study was carried out according the guidelines set out by the Faculty of Health Sciences Ethical Committee, Ethical Clearance no. EC-120821/077. The protocol was approved by the Faculty of Health sciences ethical committee at the University of Pretoria. All subjects gave written informed consent in accordance with the Declaration of Helsinki. Parasite proliferation was monitored microscopically using Giemsa stained smears. Synchronized ring stage parasites (>95%) were obtained using a 5% D-sorbitol (Sigma Aldrich) treatment. […] Gametocyte cultures were kept stationary under 90% N2, 5% CO2, and 5% O2 atmospheric conditions at 37°C and treated with 50 mM N-acetyl-glucosamine (NAG) to eliminate residual invasion of asexual parasites.
(§2) Gametocytocidal activity was determined using the luciferase reporter line (Reader et al., [2015]) to derive dose responses with two-fold serial drug dilutions for 48 h against early stage gametocytes (day 5 post-induction population, >90% stage I–III) and 10-fold serial drug dilutions for 72 h against late stage gametocytes (day 10 post-induction population, >90% late stage IV–V) (2% gametocytemia, 2% hematocrit), at 37°C under 90% N2, 5% CO2, and 5% O2 atmospheric conditions.

[2] = test system: asexual P. falciparum NF54, Dd2, K1, W2; assay: Asexual P. falciparum, metabolic (pLDH) and proliferative (SYBR Green I) platforms; format: cell-based; settings: Plasmodium falciparum
Method: Data analysis was performed using GraphPad Prism 7.
The in vitro activities of the new derivatives were determined against drug sensitive NF54 and multi-drug resistant Dd2, K1, and W2 intraerythrocytic asexual P. falciparum malaria parasite strains using both a metabolic (parasite LDH) and a proliferative (SYBR Green I fluorescence) assay readout (Table 1).

[3] = Cytotoxicity, MTT assay; format: cell-based; settings: Chinese hamster, CHO cells
Method: (§3) Cytotoxicity (EC50) was determined against Chinese hamster ovarian (CHO) using a 3-(4,5-dimethylthiazol-2-yl)-2,5-diphenyltetrazolium bromide (MTT) assay and hepatocellular carcinoma cells (HepG2) using the Cytoselect LDH cytotoxicity assay kit (Cell Biolabs).

[4] = test system: P. falciparum K1; assay: Proliferative (SYBR Green I) assay, asexual parasites, 96 h; format: cell-based; settings: Plasmodium falciparum, ±SEM
Method: as §1
(§4) Working solutions of the derivatives were prepared from a 10 mM stock solution in 100% DMSO in supplemented RPMI 1640 media containing Albumax II with a final DMSO concentration of <0.1%, previously determined as being non-toxic to intraerythrocytic asexual parasites and gametocytes. Dose responses were assayed using a two-fold serial drug dilution on in vitro >95% ring stage intraerythrocytic P. falciparum parasites at 37°C under 90% N2, 5% CO2, and 5% O2 atmospheric conditions, detecting both parasite lactate dehydrogenase (pLDH) activity as a metabolic marker following a 48 h drug exposure (1.5–2% parasitemia and 2% hematocrit; Makler et al., [1993]) and SYBR Green I fluorescence as proliferative marker following a 96 h drug exposure (1% parasitemia and 1% hematocrit). […] Data analysis was performed using GraphPad Prism 7.

[5] = test system: P. falciparum NF54; assay: as above; format: cell-based; settings: Plasmodium falciparum, ±SEM
Method: as §1, §4

[6] = test system: P. falciparum W2; assay: as above; format: cell-based; settings: Plasmodium falciparum, ±SEM
Method: as §1, §4

[7] = test system: P. falciparum NF54; assay: Metabolic (parasite LDH) assay, asexual ring stage parasites, 48 h; format: cell-based; settings: Plasmodium falciparum, pLDH, CQ-sensitive NF54
Method: as §1, §4

[8] = Cytotoxicity, Cytoselect LDH cytotoxicity assay kit; format: cell-based; settings: human, HepG2 cells
Method: as §3

[9] = test system: P. falciparum NF54 early stage gametocytes (>90% stage I–III); assay: Gametocytocidal luciferase reporter assay, early stage, 48 h; format: cell-based; settings: Plasmodium falciparum, NF54, 48 h, read-out: Early Stage (EG, Luc 48 h) IC50
Method: as §1, §2

[10] = test system: P. falciparum Dd2; assay: Metabolic (parasite LDH) assay, asexual ring stage parasites, 48 h; format: cell-based; settings: Plasmodium falciparum, pLDH, Dd2 CQ, pyrimethamine resistant
Method: as §4

[11] = test system: HepG2 cells; assay: HepG2 cytotoxicity bioluminescence assay (CellTiterGlo, ATP); format: cell-based, human; settings: two biological replicates listed in one cell
Method: (§5) Briefly, HepG2-CD81 cells were seeded into 1,536 well plates containing 50 nL of test and control compounds diluted into DMSO. […] Next, 2 μL of luciferin reagent (Promega BrightGlo) was added to each well and luciferase activity was detected using a Perkin Elmer Envision plate reader. […] In parallel, plates were processed without sporozoites for HepG2 toxicity measurements.
(§6) In continuation of the transmission blocking theme, it is important to establish activities against liver stage parasites. […] This assay uses ultra-high-throughput screening methods optimized for a 1536-well format and a HepG2 human hepatoma cell line. […] To establish selectivity of the compounds for the parasite in the liver stage of infection, cytotoxicity was determined by measuring bioluminescence from the reaction between free ATP of compound-treated, uninfected hepatocytes and a luciferase reporter system.

[12] = as above; format: cell-based, human; settings: human, uninfected HepG2-CD81 cells; for IC50 at 72 h: two biological replicates listed in one cell; for EC50 at 72 h: uninfected HepG2, ATP bioluminescence
Method: as §5, §6

[13] = test system: P. berghei ANKA GFP-Luc-SMcon sporozoites; assay: P. berghei-luciferase liver stage bioluminescence assay (causal prophylactic mode) in HepG2-CD81 cells; format: cell-based, Plasmodium berghei; settings: for Emax: 48 h, read-out: P.berghei-Luciferase Liver Stage Bioluminescence Assay: Maximum measured (%); for inhibition at 10 µM: read-out: P. berghei sporozoites Maximum inhibition %
Method: as §5, §6

[14] = test system: P. falciparum Dd2; parameters: method as in Coertzen et al. (2018); settings: pLDH, 48 h; ref Coertzen et al. (2018); read-out: Metabolic IC50 Dd2; cited from earlier work
[15] = test system: P. falciparum K1; parameters: method as in Coertzen et al. (2018); settings: SYBR Green I; ref Coertzen et al. (2018); read-out: Proliferative IC50 K1; cited from earlier work
[16] = test system: P. falciparum NF54 early stage gametocytes (>90% stage I–III); parameters: method as in Coertzen et al. (2018); settings: read-out: Early Stage (EG, Luc 48 h) IC50; >90% stage I–III gametocytes; ref Coertzen et al. (2018); cited from earlier work
[17] = test system: P. falciparum NF54 late stage gametocytes (>90% stage IV and V); parameters: method as in Coertzen et al. (2018); settings: read-out: Late Stage (LG, Luc 72 h) IC50; >90% stage IV and V gametocytes; ref Coertzen et al. (2018); cited from earlier work
[18] = test system: P. falciparum NF54; parameters: method as in Coertzen et al. (2018); settings: SYBR Green I; ref Coertzen et al. (2018); read-out: Proliferative IC50 NF54; cited from earlier work
[19] = test system: P. falciparum NF54; parameters: method as in Coertzen et al. (2018); settings: pLDH, 48 h; ref Coertzen et al. (2018); read-out: Metabolic IC50 NF54; cited from earlier work
[20] = test system: P. falciparum W2; parameters: method as in Coertzen et al. (2018); settings: SYBR Green I; ref Coertzen et al. (2018); read-out: Proliferative IC50 W2; cited from earlier work
[21] = test system: Chinese hamster ovarian (CHO) cells; settings: cited from earlier work
[22] = test system: P. falciparum W2; assay: T0 [3H]-hypoxanthine drug susceptibility assay; format: cell-based; settings: Plasmodium falciparum
[23] = drug-sensitive and -resistant parasites, both assay platforms, read-out: IC50, asexual P. falciparum metabolic activity and proliferation
[24] = >90% stage I–III gametocytes, ±SEM
[25] = read-out: IC50 for drug sensitive NF54 parasites across both assay platforms
[26] = Plasmodium berghei, two biological replicates listed in one cell
[27] = Plasmodium berghei, two biological replicates listed in one cell, read-out: P.berghei-Luciferase Liver Stage Bioluminescence Assay: IC50

| Compound | IC50 [1] [nM] | EC50 [3] [nM] | IC50 [4] [nM] | IC50 [5] [nM] | IC50 [6] [nM] | IC50 [7] [nM] | EC50 [8] [nM] | IC50 [10] [nM] | IC50 [14] [nM] | IC50 [15] [nM] | IC50 [16] [nM] | IC50 [18] [nM] | IC50 [19] [nM] | IC50 [20] [nM] | other results |
| --- | --- | --- | --- | --- | --- | --- | --- | --- | --- | --- | --- | --- | --- | --- | --- |
| C[C@H]1[C@H](N2CCN(S(=O)(=O)c3ccc(C(F)(F)F)cc3)CC2)O[C@@H]2O[C@@]3(C)CC[C@H]4[C@H](C)CC[C@@H]1[C@@]24OO3 [Compound 18] | 4.8 ± 4.2 | 154000 | 22 ± 2.7 | 13.9 ± 1.2 | 23.8 ± 1.4 | 15.3 ± 2 | 217 | 74.3 ± 6.42 |  |  |  |  |  |  | IC50 [2, 23]: 15 to 74 nM; IC50 [9, 24]: 89.7 ± 28.8 nM |
| C[C@H]1[C@H](N2CCN(C(=O)Nc3ccc(C(F)(F)F)cc3)CC2)O[C@@H]2O[C@@]3(C)CC[C@H]4[C@H](C)CC[C@@H]1[C@@]24OO3 [Compound 23] | 1 ± 0.3 | 185000 | 1.12 ± 0.13 | 1.55 ± 0.08 | 1.41 ± 0.09 | 1.83 ± 0.2 | 453 | 12.2 ± 1.9 |  |  |  |  |  |  | IC50 [2, 25]: 1 to 2 nM; IC50 [9, 24]: 20 ± 9.4 nM; HepG2 Cytotoxicity Bioluminescence Assay: Maximum measured (%) ([11]; listed as 23 (WHN-11)): 50.9% and 55.9%; IC50 ([11]; listed as 23 (WHN-11)): 3910 nM; IC50 at 72 h [12]: 6990 nM; EC50 at 72 h [12]: 5450 nM; Emax [13, 26]: 99.5%; IC50 ([13]; Plasmodium berghei, HepG2, 48 h, liver stage, HepG2 host cells, luciferase after 48 h, ±SD, read-out: P. berghei sporozoites IC50): 82.5 ± 4.17 nM; IC50 [13, 27]: 79.6 nM; inhibition at 10 µM ([13]; Plasmodium berghei, Conc. 10 μM): 105 ± 7.42%; IC50 ([13]; two biological replicates listed in one cell, listed as 23 (WHN-11), read-out: P.berghei-Luciferase Liver Stage Bioluminescence Assay: IC50): 85.5 nM |
| C[C@H]1[C@H](N2CCN(C(=O)Nc3ccc(F)cc3)CC2)O[C@@H]2O[C@@]3(C)CC[C@H]4[C@H](C)CC[C@@H]1[C@@]24OO3 [Compound 24] | 17 ± 7 | 204000 | 0.85 ± 0.1 | 1.3 ± 0.1 | 1.16 ± 0.17 | 1.21 ± 0.04 | 340 | 9.2 ± 1.9 |  |  |  |  |  |  | IC50 [2, 25]: 1 to 2 nM; IC50 [9]: 36 ± 10.2 nM; HepG2 Cytotoxicity Bioluminescence Assay: Maximum measured (%) ([11]; listed as 24 (WHN-12)): 59.5% and 66.1%; IC50 ([11]; listed as 24 (WHN-12)): 3880 nM; IC50 at 72 h [12]: 6440 nM; EC50 at 72 h [12]: 5160 nM; Emax [13, 26]: 99.2%; IC50 ([13]; Plasmodium berghei, HepG2, 48 h, read-out: P. berghei sporozoites IC50, liver stage, HepG2 host cells, luciferase after 48 h, ±SD): 106 ± 6.36 nM; inhibition at 10 µM ([13]; Plasmodium berghei): 94.8 ± 2.76%; IC50 [13, 27]: 101 nM; IC50 ([13]; two biological replicates listed in one cell, listed as 24 (WHN-12), read-out: P.berghei-Luciferase Liver Stage Bioluminescence Assay: IC50): 110 nM |
| CCCCCCCCCCCCCCCC(=O)N1CCN([C@@H]2O[C@@H]3O[C@@]4(C)CC[C@H]5[C@H](C)CC[C@@H]([C@H]2C)[C@@]35OO4)CC1 [Compound 26] |  |  |  |  |  |  |  |  |  |  |  |  |  |  | IC50 [2, 23]: 50 to 100 nM |
| CC1CCC2C(C)C(N3CCNCC3)OC3OC4(C)CCC1C32OO4 (stereo not shown) [DHA-piperazine 9] |  |  |  |  |  |  |  |  | 1.7 ± 0.2 | 1.9 ± 0.5 | 54.9 ± 5.11 | 3.1 ± 0.4 | 3.2 ± 1.4 | 1.4 ± 0.7 | IC50 [17]: 25.7 ± 17.5 nM |
| CN(C)c1ccc2nc3ccc(=[N+](C)C)cc-3sc2c1 [MB, methylene blue] |  |  |  |  |  |  |  |  | 12.6 ± 4 | 6.45 ± 0.3 | 95 ± 11.3 | 5 ± 0.8 | 0.3 ± 0.8 | 5.13 ± 0.31 | EC50 [21]: 52600 ± 4500 nM; IC50 [17]: 143 ± 16.7 nM |
| CC1CCC2C(C)C(N3CCN(C(=O)Nc4ccccc4)CC3)OC3OC4(C)CCC1C32OO4 (stereo not shown) [Phenylurea 10] |  |  |  |  |  |  |  |  | 7.5 ± 0.4 | 2.9 ± 0.6 | 83 ± 2 | 4.7 ± 1.5 | 1.3 ± 0.8 | 1.7 ± 0.5 | EC50 ([21]; read-out: Cytotoxicity EC50 CHO, MTT assay, ref Coertzen et al. (2018)): 2400 ± 1000 nM; IC50 ([22]; W2, read-out: W2 IC50): 0.12 ± 0.03 nM; IC90 ([22]; W2, read-out: W2 IC90): 0.2 ± 0.03 nM |
